Experiment [1] deals with MCF10A cells. Briefly: MTS cell growth inhibition, normal breast epithelial cells. The note with it: 72 h. In kind it is cell-based, human. As for the experimental part:
MTS Cell Growth Inhibition Experiments. Colorectal cancer cells (SW480 and HCT116) and triple negative breast cancer cells (MDA-MB-231 and MDA-MB-468) were seeded in 96-well plates at 5×10^3 cells/well in DMEM with 10% fetal bovine serum (FBS), maintained overnight at 37° C., and then incubated with the tested compounds at various concentrations in DMEM with 5% FBS. Human mammary epithelial MCF10A cells were seeded in 96-well plates at 1×10^4 cells/well in MEGM (CC-3150, Lonza) with 100 ng/mL cholera toxin, maintained overnight at 37° C., and incubated with the tested compounds at various concentrations. Cell viability was monitored after 72 h using a freshly prepared mixture of 1 part phenazine methosulfate (PMS, Sigma) solution (0.92 mg/mL) and 19 parts 3-(4,5-dimethylthiazol-2-yl)-5-(3-carboxymethoxyphenyl)-2-(4-sulfophenyl)-2H-tetrazolium (MTS, Promega) solution (2 mg/mL). Cells were incubated in 10 μL of this solution at 37° C. for 3 h, and the UV absorption at 490 nm (A490) was measured. The effect of each compound is expressed as the concentration required to reduce A490 by 50% (IC50) relative to DMSO-treated cells. Experiments were performed in triplicate.

Experiment [2] relates to Axin2. In words: Western blot of Wnt target gene protein expression. The format is cell-based. The note with it: SW480 cells, 24-h incubation. As for the experimental part: Western Blotting of Wnt Target Genes. SW480 cells at 1×10^6 cells/mL were treated with different concentrations of inhibitors for 24 h. Cells were lysed in buffer containing 50 mM Tris (pH 7.4), 150 mM NaCl, 1% Nonidet P-40, 0.1% SDS, 0.5% sodium deoxycholate, and protease inhibitors. After centrifugation at 12,000 rpm for 20 min at 4° C., the supernatant was boiling in the SDS sample buffer and loaded onto an 8% SDS polyacrylamide gel for electrophoretic analysis. Separated proteins were transferred onto nitrocellulose membranes for immunoblot analysis. The antibodies against Axin2 (MA5-15015, Thermo Fisher) and f-tubulin (sc-55529, Santa Cruz Biotechnology) were incubated with the membranes overnight at 4° C., respectively. IRDye 680LT goat anti-mouse IgG (827-11080, LiCOR) or IRDye 800CW goat anti-rabbit IgG (827-08365, LiCOR) was used as the secondary antibody. The images were detected by the Odyssey Infrared Imaging System (LiCOR). Experiments were performed in duplicate.
On the technique in general: Immunoblotting shows a protein as a band on a membrane.

The subject of experiment [3] is β-catenin/E-cadherin PPI. In words: Cell-based co-IP, β-catenin/E-cadherin. To be noted: HCT116 cells, 24 h; concentrations sufficient to disrupt β-catenin/BCL9 PPI. As for the experimental part: (§1) Co-IP Experiments. HCT116 cancer cells with hyperactive β-catenin signaling at 1×10^6 cells/mL were treated with different concentrations of the inhibitor for 24 h. Cells were then lysed in buffer containing 50 mM Tris, pH 7.4, 150 mM NaCl, 1% Nonidet P-40, 2 mM EDTA and protease inhibitors. The cell lysates were pre-adsorbed to A/G plus agarose (sc-2003, Santa Cruz Biotechnology) at 4° C. for 1 h. Pre-adsorbed lysates were incubated with a specific primary antibody against β-catenin (610153, BD Biosciences) overnight at 4° C. A/G plus agarose was then added to the lysate mixture and incubated for 3 h. The beads were washed four times with buffer B (20 mM Tris pH 7.4, 150 mM NaCl, 0.1% NP-40) at 4° C. The bound protein was eluted by boiling in the SDS sample buffer and loaded onto 8% SDS polyacrylamide gel for electrophoretic analysis. Separated proteins were transferred onto nitrocellulose membranes for immunoblot analysis. The antibodies against BCL9 (ab37305, Abcam) and E-cadherin (610404, BD Biosciences) were incubated with the membranes, respectively. IRDye 680LT goat anti mouse IgG (827-11080, LiCOR) and IRDye 800CW goat anti rabbit IgG (926-32211, LiCOR) were used as the secondary antibodies. The images were detected by the Odyssey Infrared Imaging System (LiCOR). Experiments were performed in triplicate.

In experiment [4] the test system is Wnt/β-catenin transactivation (TOPFlash) in SW480 cells. Briefly: Wnt-responsive TOPFlash luciferase reporter assay. In kind it is cell-based. The note with it: 24 h. As for the experimental part: (§2) Cell Transfection and Luciferase Assay. FuGENE6 (E269 Å, Promega) 96 well plate format was used for the transfection of SW480 cells according to the manufacturer's instruction. SW480 cells were co-transfected with 60 ng of the TOPFlash or FOPFlash firefly luciferase reporter gene and 40 ng of the Renilla luciferase pCMV-RL normalization reporter gene. Cells were cultured in DMEM and 10% FBS at 37° C. for 24 h, and then different concentrations of inhibitors or DMSO was added and incubated in DMEM with 5% FBS. After 24 h, the luciferase reporter activity was measured using the Dual-Glo system (E2940, Promega). Normalized luciferase activity in response to the treatment with inhibitors was compared with that obtained from the cells treated with DMSO. Experiments were performed in triplicate.
For orientation: A reporter such as luciferase makes a cellular process visible.

The subject of experiment [5] is β-catenin/BCL9 PPI. In words: Cell-based co-IP, β-catenin/BCL9. To be noted: HCT116 cells, 24 h. As for the experimental part: as §1
The test system of experiment [6] is FOPFlash reporter in SW480 cells. In words: FOPFlash luciferase reporter assay. In kind it is cell-based. To be noted: testing concentrations. As for the experimental part:
as §2

For experiment [7], the target named is β-catenin/BCL9 PPI (Homo sapiens (Human), UniProt P35222). Briefly: AlphaScreen competitive inhibition assay of β-catenin/BCL9 PPI. The format is binding. To be noted: mean ± standard deviation (n = 3). The essentials: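 5 nM biotinylated BCL9 and 50 nM His6-β-catenin were preincubated 30 min in pH 7.4 Hepes/NaCl/Triton/BSA buffer, then with inhibitor for 1 h, then 10 μg/mL donor/acceptor beads for 1 h, with 1% DMSO. IC50 came from nonlinear fitting, and Ki was calculated from IC50 by the Wang equation.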
β-catenin/BCL9 PPI (Homo sapiens (Human), UniProt P35222), sequence (P35222 whole entry): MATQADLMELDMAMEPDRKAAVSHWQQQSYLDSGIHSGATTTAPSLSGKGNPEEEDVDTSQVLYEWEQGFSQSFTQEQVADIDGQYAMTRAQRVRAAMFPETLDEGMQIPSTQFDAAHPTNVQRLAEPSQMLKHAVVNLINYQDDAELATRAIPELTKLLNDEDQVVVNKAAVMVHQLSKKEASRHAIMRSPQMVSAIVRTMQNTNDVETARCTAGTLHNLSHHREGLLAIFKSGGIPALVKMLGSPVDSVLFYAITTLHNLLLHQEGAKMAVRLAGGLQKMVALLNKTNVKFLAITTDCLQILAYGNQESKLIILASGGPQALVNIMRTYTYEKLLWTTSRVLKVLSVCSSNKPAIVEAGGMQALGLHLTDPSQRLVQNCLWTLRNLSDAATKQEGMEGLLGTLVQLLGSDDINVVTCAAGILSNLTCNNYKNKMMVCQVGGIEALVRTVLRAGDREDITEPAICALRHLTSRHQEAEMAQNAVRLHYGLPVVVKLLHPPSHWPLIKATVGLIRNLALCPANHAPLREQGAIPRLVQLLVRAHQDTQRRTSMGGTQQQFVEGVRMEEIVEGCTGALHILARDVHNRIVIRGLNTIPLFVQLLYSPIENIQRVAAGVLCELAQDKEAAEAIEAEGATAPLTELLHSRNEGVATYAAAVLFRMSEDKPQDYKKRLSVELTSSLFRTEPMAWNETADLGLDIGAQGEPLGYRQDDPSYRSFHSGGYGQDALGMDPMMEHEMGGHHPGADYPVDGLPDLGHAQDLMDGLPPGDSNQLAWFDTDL
(In general: Alpha assays give light when donor and acceptor beads are brought close together.)

Experiment [8] deals with Wnt target genes Axin2, BCL9L, MMP7 in SW480 cells. In words: Quantitative real-time PCR of Wnt target genes. In kind it is cell-based, human. The note with it: 24-h incubation. As for the experimental part: Quantitative Real Time PCR analysis. SW480 cells at 1×10^6 cells/mL were treated with inhibitors at different concentrations for 24 h. Total RNAs were extracted with TRIzol (15596026, Life Technologies), and the cDNA was synthesized with the superscript III first-strand kit (18080-051, Invitrogen). qPCR experiments were performed using the iQ™ SYBR green supermix kit (170-8880, BIO-RAD) on an CFX96 Real Time System (BIO-RAD). The threshold cycle (CT) values were normalized to that of internal reference GAPDH. Experiments were performed in triplicate. The primer pairs are shown below

Experiment [9] addresses full-length β-catenin (Homo sapiens (Human), UniProt P35222). In words: Streptavidin protein pull-down from SW480 cell lysates. The format is binding. The note with it: 1 μM. As for the experimental part: Pull-Down Experiments. Colorectal cancer SW480 cells (70-80% confluency) in T75 flask were lysed first in 1 mL buffer A containing 50 mM Tris (pH 7.4), 150 mM NaCl, 1% Nonidet P-40, 2 mM EDTA, and protease inhibitors. Cell debris was removed by centrifugation at 10,000 g for 20 min at 4° C. To 500 μL SW480 cell lysates was added 1 or 10 μM Biotin-36 and the mixture was incubated at 4° C. for 3 h. Then, 25 μL Streptavidin Sepharose beads (5-1638, Sigma) were added to the lysate mixture and rotated at 4° C. for 2 h. The lysate mixture was centrifuged at 4000 rpm for 2 min at 4° C. The beads were washed with buffer B (20 mM Tris pH 7.4, 150 mM NaCl, 0.1% NP-40) for 4 times. The beads were resuspended in 60 μL of 2×SDS sample buffer. After boiling, the samples were loaded onto 8% SDS polyacrylamide gel for electrophoretic analysis. Separated proteins were transferred onto nitrocellulose membranes for immunoblot analysis. The antibody against β-catenin (610153, BD Biosciences) were incubated with the membranes. IRDye 680LT goat anti-mouse IgG (827-11080, LiCOR) was used as the secondary antibody. The images were detected by the Odyssey Infrared Imaging System (LiCOR). Experiments were performed in duplicate.

full-length β-catenin, sequence (P35222 whole entry): as above

For orientation: IC50 means the concentration that gives 50% inhibition. As a reminder, the Ki is a measure of affinity in units of concentration, obtained from inhibition or displacement. Regarding `CC(C)(C)[C@H]1CC[C@@H](c2cc(C(=O)N3CCC(Oc4cc(N5CCNCC5)ccc4C#N)CC3)ccc2O[C@H]2CCNC2)CC1` [Compound 44], the “selectivity over normal breast epithelial MCF10A cells” value in [1] is on record as over 4 fold. Besides, the “protein expression level of Axin2” value in experiment [2] is given as “significant decreased”. Moreover, the “effect on β-catenin/E-cadherin PPI (co-IP)” value in experiment [3] was “did not affect the β-catenin/E-cadherin PPI”. In addition, the half-maximal inhibitory concentration (IC50) is 2600 nM in experiment [4] and at most 2000 nM in experiment [7]. Further, in experiment [5], the “disruption of β-catenin/BCL9 interaction (co-IP)” value is reported as “effectively disrupted β-catenin/BCL9 interaction”. Further, the FOPFlash luciferase activity entry in [6] is “not affected”. Moreover, the Ki in experiment [7] (derived from IC50, read-out: Ki ± SD) is at most 2000 nM. Besides, the “effect on house-keeper gene HPRT (qPCR)” value in experiment [8] is given as “no effect”. The “transcription of Wnt target genes Axin2, BCL9L, MMP7 (qPCR)” value in experiment [8] is “downregulated transcriptions”.

As for `CC(C)(C)C1CCC(c2cc(C(=O)N3CCC(Oc4cc(N5CCNCC5)ccc4C#N)CC3)ccc2O[C@@H]2CNC[C@H]2OCCOCCOCCNC(=O)CCCC[C@@H]2SCC3NC(=O)NC32)CC1.O=C(O)C(F)(F)F.O=C(O)C(F)(F)F` (relative stereo) [Biotin-37, trans-N-(2-(2-(2-((4-(2-(cis- and trans-4-(tert-butyl)cyclohexyl)-4-(4-(2-cyano-5-(piperazin-1-yl)phenoxy)piperidine-1-carbonyl)phenoxy)pyrrolidin-3-yl)oxy)ethoxy)ethoxy)ethyl)-5-((4S)-2-oxohexahydro-1H-thieno[3,4-d]imidazol-4-yl)pentanamide ditrifluoroacetic acid], the “binding with β-catenin (pull-down, Western blot)” value in [9] is “effectively bound with full-length β-catenin”.

These data come from patent US20240208940A1, “SMALL-MOLECULE INHIBITORS FOR BETA-CATENIN/BCELL LYMPHOMA 9 PROTEIN-PROTEIN INTERACTION” (H. LEE MOFFITT CANCER CENTER AND RESEARCH INSTITUTE, INC., priority 2021, published 2024).
